In general, IC50 refers to the concentration at which inhibition is half-maximal. High values mean a need for much substance, low ones inhibition by little substance.

This passage reports IC50 results from patent publication US11117930B2, “Peptide inhibitors of transcription factor aggregation” (ADRX, INC., priority 2017, dated 2021).

Non-standard residues stand in square brackets, D forms with d. Residues, ends and D or L forms follow the SMILES beside them. NMeI = CC[C@H](C)[C@H](NC)C(=O)O

For the assay, the target named is Nat1 (LTIITLE (SEQ ID NO: 225)) (Homo sapiens, UniProt P04637). The assay is described as follows: Thioflavin T aggregation assay (Nat1). The class given is biochemical. To be noted: ThT fluorescence, 50 μM Nat1, pH6.0, room temperature, 2 hours. Here is the method:
The peptides of the invention were tested in an in vitro Thiofiavin T aggregation assay [see WO2014/182961]. An increase in Thioflavin T fluorescence is detected over time due to the formation of increasing amounts of amyloid to which the dye can specifically bind. […] For the Nat1 Stock Solution, Nat (LTIITLE (SEQ ID NO: 225), >95% Pure, TFA salt) is dissolved at 8 mM in 25 mM NaOH solution and kept at −80° C. Prior to the assay, it is diluted to 1 mM in H2O. The 2× Reaction Buffer is prepared with 200 mM Sodium Phosphate, pH6.0, 500 mM Sodium Chloride and 200 μM Thioflavin T (ThT). 100 μL of 2× reaction buffer and 80 μL of H2O are added to each well in black, clear-bottomed 96-well plate. Inhibitor peptides are dissolved in H2O to appropriate concentrations to produce 6-points dose response curves. 10 μL of dissolved peptide or H2O (control) is added to each reaction well. 10 μL of 1 mM Nat1 peptide is added to each reaction well (a final concentration of 50 μM). ThT fluorescence is monitored at room temperature every minute for 2 hours with excitation and emission wavelengths of 440 and 485 nm, respectively. IC50 values are calculated using Graphpad Prism.

On to `CC[C@H](C)[C@@H](C(=O)N[C@@H](CCCCN)C(=O)N[C@@H](Cc1ccc(O)cc1)C(=O)N[C@@H](Cc1c[nH]cn1)C(=O)N[C@@H](CCCNC(=N)N)C(=O)O)N(C)C(=O)[C@H](CCCNC(=N)N)NC(=O)[C@@H](N)CC(C)C` [LR(N-Me)IKYHR] (H-LR[NMeI]KYHR-OH; N-terminus and C-terminus assumed), for which the IC50 came to 334 nM. Then Ac-IRIRRYR-NH2 [Ac-IRIRRYR-NH2], with 69 nM.
